How the values were obtained:
[1] = test system: human skin fibroblasts (1BR.3.N cell line); experiment: Cytotoxicity, Presto Blue cell viability assay on human skin fibroblasts; type: cell-based; conditions: 1BR.3.N human skin fibroblasts, 24 h incubation, Hill Equation, read-out: IC50 Values (Mean ± SD) Fibroblasts
Description: The cytotoxicity test was conducted on a 1BR.3.N cell line (human skin fibroblasts, ECACC, co. 90020508) and human epidermal keratinocytes, neonatal (Millipore, co. SCCE020) purchased from Sigma-Aldrich (Merck, Darmstadt, Germany). […] The cells were maintained at 37 °C and 5% CO2 in a humidified incubator. Next, the medium was changed into a starvation medium for the 1BR.3.N cell line (EpiGROTM human epidermal keratinocyte complete media kit for keratinocytes) with a variable final concentration of five analyzed complexes (ZnGlu (1), ZnGly (2), ZnHis (3), ZnPro (4), ZnTrp (6)) and two controls, ZnPCA and ZnCl2.

[2] = test system: human epidermal keratinocytes, neonatal; experiment: Cytotoxicity, Presto Blue cell viability assay on human epidermal keratinocytes; type: cell-based; conditions: 24 h incubation, Hill Equation, read-out: IC50 Values (Mean ± SD) Keratinocytes
Description: The cytotoxicity test was conducted on a 1BR.3.N cell line (human skin fibroblasts, ECACC, co. 90020508) and human epidermal keratinocytes, neonatal (Millipore, co. SCCE020) purchased from Sigma-Aldrich (Merck, Darmstadt, Germany). The same procedure was conducted for keratinocytes in EpiGROTM human epidermal keratinocyte complete media with 6 mM L-glutamine, 0.405 EpiFactor P, 1.0 μM epinephrine, 0.5 ng/mL rh TGF-α, 100 ng/mL hydrocortisone hemisuccinate, 5 μg/mL rh insulin and apo-transferrin. The cells were maintained at 37 °C and 5% CO2 in a humidified incubator. Next, the medium was changed into a starvation medium for the 1BR.3.N cell line (EpiGROTM human epidermal keratinocyte complete media kit for keratinocytes) with a variable final concentration of five analyzed complexes (ZnGlu (1), ZnGly (2), ZnHis (3), ZnPro (4), ZnTrp (6)) and two controls, ZnPCA and ZnCl2.

[3] = test system: L929 fibroblast cultures; parameters: method as in PMID 28246541; conditions: murine model; read-out: IC50 against L929 fibroblast cultures; cited from earlier work
[4] = test system: HaCaT keratinocytes; conditions: concentration equal to 100 μM; cited from earlier work
[5] = test system: Cutibacterium acnes ATCC 6919; experiment: Antimicrobial activity by microdilution method (CLSI M11), anaerobic conditions; type: cell-based; conditions: C. acnes ATCC 6919, 48 h at 37 °C, tested up to 500 mg/L
Description: The antimicrobial potential of zinc complexes against the anaerobic strain Cutibacterium acnes ATCC 6919 was tested by the microdilution method in Brucella broth supplemented with hemin, vitamin K1 and laked horse blood according to the CLSI document M11 (9th Edition) for antimicrobial susceptibility testing of anaerobic bacteria. Antimicrobial activity testing assays were conducted in 96-well cell culture plates in anaerobic conditions. The antimicrobial properties of zinc complexes were tested up to 500 mg/L. […] The bacterial suspension and dilutions of the tested compounds were combined in equal volumes to achieve the expected concentrations of zinc amino acid complexes. Samples as well as adequate abiotic and biotic controls were incubated for 48 h at 37 °C after being placed in 96-well cell culture plates in anaerobic jars, in which anaerobic conditions were formed using Anoxomat Mark II CTS (Mart Microbiology […], the Netherlands). The minimum inhibitory concentration (MIC), expressed in mg/L, was determined as the lowest concentration of zinc amino acid complexes at which no growth of C. acnes was observed. […] The Brucella agar plates were incubated for 48 h at 37 °C after placing the plates in anaerobic jars, in which anaerobic conditions were created.

[6] = test system: human lung fibroblast (MRC-5) cell line; parameters: method as in PMID 30594780; conditions: concentrations up to 100 µM; cited from earlier work

Molecule	IC50 [1]	IC50 [2]	IC50 [3]	toxicity to HaCaT keratinocytes [4]	MIC Value [5]	toxic effects on MRC-5 cell line [6]
[Cl-].[Cl-].[Zn+2] [ZnCl2]	163 ± 4.1 µM	127 µM	0.928 µM	non-toxic		
NCC(=O)[O-].NCC(=O)[O-].[Zn+2] [ZnGly (2)]	120 ± 4.61 µM	138 ± 8.11 µM			100 µg/mL	
O=C1CCC(C(=O)[O-])N1.O=C1CCC(C(=O)[O-])N1.[Zn+2] (centres unmarked) [ZnPCA, zinc 2-pirrolidone 5-carboxylate]	172 ± 9.69 µM	102 ± 2.07 µM			175 µg/mL	
copper(II) complex with 5-hydroxytryptophan						no toxic effects
